Here are results for 1 compound from US8912146B2, “Derivatives of APF and methods of use” (University of Maryland, Baltimore, priority 2008, dated 2014).

Entries after “also recorded” stand apart in the source; their conditions may differ.

Holding throughout (format): cell-based, human
Assay [1] has as its system bladder epithelial cells from IC/PBS patients. The experiment in a line: Stimulation of IC/PBS cell proliferation (3H-thymidine incorporation). The procedure:
(§1) IC/PBS cells were incubated with varying concentrations of two derivatives shown to inhibit APF activity in normal bladder cells—GalGalNAc-TV(D-pipecolic acid) AAVVVA (SEQ ID NO:14) and GalGalNAc-TV (D-proline)AAVVVA (SEQ ID NO:27). Cell proliferation was determined by ^3H-thymidine incorporation; gene expression by quantitative RT-PCR; specific protein expression by Western blot analysis; tight junction formation by confocal immunofluorescence microscopy; and paracellular permeability by ^14C-mannitol and ^3H-inulin flux between confluent cells on Transwell plates. Significance of the difference in mean values between groups was determined by an analysis of variance for each assay.
as §1, with “cells -GalGalNAc-TV-(D-pipecolic acid)-AAVVVA” for “cells—GalGalNAc-TV(D-pipecolic acid) AAVVVA”, “NO:7)” for “NO:14)”, “GalGalNAc-TV-(D-proline)-AAVVVA” for “GalGalNAc-TV (D-proline)AAVVVA”, “RT-PCR;” for “RT-PCR; specific protein expression by Western blot analysis;”
IC/PBS cells produce APF and as a result have a profound decrease in cell proliferation. […]
Cystoscopy was performed under general anesthesia, and 4-mm^2 pieces of transitional epithelium with submucosal bladder tissue were obtained from IC/PBS patients and controls for the growth of primary bladder epithelial cells, as previously described (Keay et al., 2000; Keay et al., 2001; Keay et al., 2004; Keay et al., 2003). […]
Cell proliferation was measured by ^3H-thymidine incorporation into explanted normal human bladder epithelial cells, as previously described (Keay et al., 2000; Keay et al., 2001; Keay et al., 2004; Keay et al., 2003; Saitoh et al., 2001). […]
Background: Uptake of a labelled nucleoside into DNA is a usual measure of proliferation.

The subject of assay [2] is tight junction proteins in IC/PBS cells. The experiment in a line: Immunofluorescence confocal microscopy of tight junction proteins in IC/PBS cells. Particulars: IC/PBS cell explants, 9 days. The procedure: For immunofluorescence, cells were fixed using ethanol/acetone (1:1) for 15 minutes at room temperature, washed 3 times with PBS and incubated with fluorescein isothiocyanate (FITC) labeled mouse monoclonal anti-ZO-1 (5 μg/ml); or unlabeled mouse monoclonal anti-occludin (5 μg/ml) or anti-claudin 4 (3 μg/ml); or unlabeled rabbit polyclonal anti-claudin 1 (3 μg/ml), anti-claudin 8 (8 μg/ml), or anti-claudin 12 (5 μg/ml from Zymed, South San Francisco, Calif.) diluted in PBS for 2 hours at 37 C. Cells incubated with unlabeled mouse monoclonal primary antibodies were then washed 3 times with PBS and further incubated with FITC-labeled secondary goat anti-mouse IgG antibody (Zymed) diluted in PBS, while cells incubated with unlabeled rabbit polyclonal primary antibodies were washed and further incubated for 2 hours at 37 C with goat anti-rabbit IgG (Zymed) diluted in PBS. Following an additional 5 washes with PBS, the cells were examined using an LSM510 confocal laser scanning microscope (Carl Zeiss, Oberkochen, Germany). Negative controls for the method included cells incubated without primary and secondary antibodies as well as cells incubated with secondary antibody alone.

The next assay concerns IC/PBS cell monolayers. The assay can be described thus: Paracellular permeability (14C-mannitol and 3H-inulin flux, Transwell) of IC/PBS cell monolayers. Conditions: 16 or 30 days treatment. The procedure:
Flux assays were performed using 12-mm Transwell culture plates (Corning Incorporated, Corning, N.Y.), as previously described (Keay et al., 2000). Cells were plated at 4×10^5 cells/cm^2 on the insert and grown in DMEM-F12 medium containing 10% heat-inactivated FBS, 1% antibiotic solution, 1% L-glutamine, 0.25 units/ml insulin (all from Sigma, St. Louis, Mo.), and 5 ng/ml hEGF (R & D Systems, Minneapolis, Minn.) to establish tight monolayers. On day 2, the medium was changed to MEM (GIBCO/Invitrogen) containing 1% antibiotic/antimycotic solution and 1% L-glutamine (Sigma).
Two different membrane impermeable molecules, [14C]-mannitol (molecular weight: 184 Daltons) and [^3H]-inulin (molecular weight: 5,200 Daltons), served as paracellular tracers. […] Flux assays were performed at 37° C.; basal medium was collected at 0.5-6 hrs after addition of [^14C]-mannitol or [3H]-inulin, and the amount of radioactivity determined using a Beckman LS 5000 scintillation counter. Results were expressed as percentage of total counts for each tracer.
For the permeability assay, the percentage of total counts in the basal medium was determined in four experiments (using different IC/PBS cell donors), and expressed as mean±standard deviation. […]

For `CC(=O)NC1C(O[C@@H]2OC(CO)[C@H](O)C(O)C2O)[C@@H](O)C(CO)O[C@@H]1OC(C)[C@H](N)C(=O)NC(C(=O)N1CCCC1C(=O)NC(C)C(=O)N[C@@H](C)C(=O)NC(C(=O)N[C@H](C(=O)NC(C(=O)N[C@@H](C)C(=O)O)C(C)C)C(C)C)C(C)C)C(C)C` (stereo in doubt) [Derivative 8, GalGalNAc-TV(D-proline)AAVVVA], in assay [1] (1 nM twice weekly, by Day 16 (FIG. 55)), the “stimulation of IC/PBS cell proliferation” value is listed as “significantly (p<0.05) stimulated IC/PBS cell proliferation”. Also, in assay [1] (0.25 μM of each agent, 9, 16, 23, 30 day treatment (FIG. 41)), the “stimulation of IC cell proliferation” value was “Optimal stimulation of IC cell proliferation”. In addition, the “IC cell proliferation vs untreated controls” value in assay [1] (16 and 30 days of treatment (FIG. 48)) is “significantly stimulated”. The “expression of tight junction proteins by immunofluorescence confocal microscopy” value in assay [2] was “increased”. The “paracellular permeability of IC/PBS cells (14C-mannitol, 3H-inulin)” value is reported as “significantly decrease permeability” in the assay on IC/PBS cell monolayers and “normalized; also recorded: significantly decreased paracellular permeability” in the assay on IC/PBS cell monolayers (listed as D-proline APF).
